# In ChEMBL document CHEMBL1201862, “PubChem BioAssay data set” (2004):
#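 48-hour exposure; five concentrations; linearly interpolated endpoints. At the GI50, growth is halved.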 The source made the active and inactive calls. Cut-off read from the data, not from the text of the source: active = GI50 up to about 1.1 µM and inactive = higher.
# Assays:
# Assay in all cases: NCI-60 cell line screen, 48 h
# U-251 = system: U-251
# Malme-3M = system: Malme-3M
# HL-60 = system: HL-60
# SF-539 = system: SF-539
# XF498 = system: XF498
# MOLT-4 = system: MOLT-4
# NCI-H23 = system: NCI-H23
# SNB-78 = system: SNB-78
# SK-MEL-2 = system: SK-MEL-2
# LOX IMVI = system: LOX IMVI
# RPMI-8226 = system: RPMI-8226
# DLD-1 = system: DLD-1
# K562 = system: K562
# SN12C = system: SN12C
# ACHN = system: ACHN
# SNB-19 = system: SNB-19
# SR = system: SR
# CCRF-CEM = system: CCRF-CEM
# OVCAR-5 = system: OVCAR-5
# SNB-75 = system: SNB-75
# RXF 393 = system: RXF 393
# TK-10 = system: TK-10
# A498 = system: A498
# KM12 = system: KM12
# SF-295 = system: SF-295
# SW-620 = system: SW-620
# NCI-H226 = system: NCI-H226
# SK-MEL-28 = system: SK-MEL-28
# HOP-18 = system: HOP-18
# DMS-114 = system: DMS-114
# HCC 2998 = system: HCC 2998
# M14 = system: M14
# HOP-92 = system: HOP-92
# HCT-116 = system: HCT-116
# A549 = system: A549
# IGROV-1 = system: IGROV-1
# HT-29 = system: HT-29
# LXFL 529 = system: LXFL 529
# HCT-15 = system: HCT-15
# CAKI-1 = system: CAKI-1
# COLO 205 = system: COLO 205
# OVCAR-4 = system: OVCAR-4
# EKVX = system: EKVX
# OVCAR-8 = system: OVCAR-8
# SK-MEL-5 = system: SK-MEL-5
# UACC-257 = system: UACC-257
# DMS-273 = system: DMS-273
# SF-268 = system: SF-268
# NCI-H460 = system: NCI-H460
# KM-20L2 = system: KM-20L2
# 786-0 = system: 786-0
# BT-549 = system: BT-549
# MDA-N = system: MDA-N
# Hs-578T = system: Hs-578T
# NCI-H522 = system: NCI-H522
# MDA-MB-435 = system: MDA-MB-435
# HOP-62 = system: HOP-62
# OVCAR-3 = system: OVCAR-3
# SK-OV-3 = system: SK-OV-3
# M19-MEL = system: M19-MEL
# NCI/ADR-RES = system: NCI/ADR-RES
# UACC-62 = system: UACC-62
# DU-145 = system: DU-145
# UO-31 = system: UO-31
# MCF7 = system: MCF7
# MDA-MB-231 = system: MDA-MB-231
# PC-3 = system: PC-3
# T47D = system: T47D
compound,measurement,setting,value
CCCCCCCSCC1OC(n2cnc3c(N)ncnc32)C(O)C1O (stereo unspecified),GI50,U-251,> 100 µM (inactive)
same,GI50,Malme-3M,49.3 µM (inactive)
same,GI50,HL-60,3.01 µM (inactive)
same,GI50,SF-539,32.7 µM (inactive)
same,GI50,XF498,63.4 µM (inactive)
same,GI50,MOLT-4,19.1 µM (inactive)
same,GI50,NCI-H23,> 100 µM (inactive)
same,GI50,SNB-78,> 100 µM (inactive)
same,GI50,SK-MEL-2,20.3 µM (inactive)
same,GI50,LOX IMVI,49.9 µM (inactive)
same,GI50,RPMI-8226,12.6 µM (inactive)
same,GI50,DLD-1,7.64 µM (inactive)
same,GI50,K562,22.8 µM (inactive)
same,GI50,SN12C,21.8 µM (inactive)
same,GI50,ACHN,25.9 µM (inactive)
same,GI50,SNB-19,30.5 µM (inactive)
same,GI50,SR,10 µM (inactive)
same,GI50,CCRF-CEM,39.4 µM (inactive)
same,GI50,OVCAR-5,> 100 µM (inactive)
same,GI50,SNB-75,24 µM (inactive)
same,GI50,RXF 393,> 100 µM (inactive)
same,GI50,TK-10,> 100 µM (inactive)
same,GI50,A498,14.2 µM (inactive)
same,GI50,KM12,8.22 µM (inactive)
same,GI50,SF-295,18.7 µM (inactive)
same,GI50,SW-620,13.3 µM (inactive)
same,GI50,NCI-H226,> 100 µM (inactive)
same,GI50,SK-MEL-28,> 100 µM (inactive)
same,GI50,HOP-18,17.9 µM (inactive)
same,GI50,DMS-114,18 µM (inactive)
same,GI50,HCC 2998,20.9 µM (inactive)
same,GI50,M14,22.5 µM (inactive)
same,GI50,HOP-92,6.43 µM (inactive)
same,GI50,HCT-116,3.59 µM (inactive)
same,GI50,A549,31.8 µM (inactive)
same,GI50,IGROV-1,14.6 µM (inactive)
same,GI50,HT-29,1.42 µM (inactive)
same,GI50,LXFL 529,12.3 µM (inactive)
same,GI50,HCT-15,4.5 µM
same,GI50,CAKI-1,5.08 µM (inactive)
same,GI50,COLO 205,14 µM (inactive)
same,GI50,OVCAR-4,21.8 µM (inactive)
same,GI50,EKVX,20.5 µM (inactive)
same,GI50,OVCAR-8,14.4 µM (inactive)
same,GI50,SK-MEL-5,16.2 µM (inactive)
same,GI50,UACC-257,18.3 µM (inactive)
same,GI50,DMS-273,21.3 µM (inactive)
same,GI50,SF-268,34.2 µM (inactive)
same,GI50,NCI-H460,16.5 µM (inactive)
same,GI50,KM-20L2,> 100 µM (inactive)
O/N=N/c1cnccn1,GI50,U-251,1080 µM (inactive)
same,GI50,Malme-3M,> 1250 µM (inactive)
same,GI50,HL-60,322 µM (inactive)
same,GI50,SF-539,> 1190 µM (inactive)
same,GI50,786-0,> 1250 µM (inactive)
same,GI50,MOLT-4,196 µM (inactive)
same,GI50,NCI-H23,859 µM (inactive)
same,GI50,BT-549,> 979 µM (inactive)
same,GI50,MDA-N,> 1250 µM (inactive)
same,GI50,Hs-578T,> 1210 µM (inactive)
same,GI50,SNB-78,> 918 µM (inactive)
same,GI50,SK-MEL-2,> 1200 µM (inactive)
same,GI50,NCI-H522,1030 µM (inactive)
same,GI50,LOX IMVI,1190 µM (inactive)
same,GI50,RPMI-8226,> 1250 µM (inactive)
same,GI50,DLD-1,> 1250 µM (inactive)
same,GI50,K562,> 1190 µM (inactive)
same,GI50,SN12C,> 1250 µM (inactive)
same,GI50,ACHN,480 µM (inactive)
same,GI50,MDA-MB-435,> 1250 µM (inactive)
same,GI50,SNB-19,> 1250 µM (inactive)
same,GI50,SR,> 180 µM (inactive)
same,GI50,CCRF-CEM,491 µM (inactive)
same,GI50,OVCAR-5,> 1250 µM (inactive)
same,GI50,HOP-62,218 µM (inactive)
same,GI50,OVCAR-3,> 1250 µM (inactive)
same,GI50,SNB-75,> 1110 µM (inactive)
same,GI50,RXF 393,> 1250 µM (inactive)
same,GI50,TK-10,> 1250 µM (inactive)
same,GI50,A498,> 1250 µM (inactive)
same,GI50,KM12,> 1250 µM (inactive)
same,GI50,SF-295,> 1250 µM (inactive)
same,GI50,SK-OV-3,> 269 µM (inactive)
same,GI50,SW-620,> 1250 µM (inactive)
same,GI50,M19-MEL,> 1250 µM (inactive)
same,GI50,NCI-H226,1250 µM (inactive)
same,GI50,SK-MEL-28,> 1250 µM (inactive)
same,GI50,NCI/ADR-RES,> 1250 µM (inactive)
same,GI50,UACC-62,> 959 µM (inactive)
same,GI50,HOP-18,> 1250 µM (inactive)
same,GI50,DU-145,1090 µM (inactive)
same,GI50,UO-31,> 1250 µM (inactive)
same,GI50,DMS-114,929 µM (inactive)
same,GI50,HCC 2998,> 1250 µM (inactive)
same,GI50,M14,> 1250 µM (inactive)
same,GI50,MCF7,531 µM (inactive)
same,GI50,HOP-92,> 1080 µM (inactive)
same,GI50,HCT-116,> 1230 µM (inactive)
same,GI50,A549,> 1250 µM (inactive)
same,GI50,MDA-MB-231,> 1250 µM (inactive)
same,GI50,IGROV-1,> 1150 µM (inactive)
same,GI50,HT-29,> 1250 µM (inactive)
same,GI50,HCT-15,> 1080 µM
same,GI50,CAKI-1,975 µM (inactive)
same,GI50,COLO 205,> 1220 µM (inactive)
same,GI50,OVCAR-4,> 438 µM (inactive)
same,GI50,PC-3,> 1250 µM (inactive)
same,GI50,EKVX,> 1250 µM (inactive)
same,GI50,OVCAR-8,1200 µM (inactive)
same,GI50,SK-MEL-5,> 1250 µM (inactive)
same,GI50,UACC-257,> 1250 µM (inactive)
same,GI50,T47D,933 µM (inactive)
same,GI50,DMS-273,> 1250 µM (inactive)
same,GI50,SF-268,> 1250 µM (inactive)
same,GI50,NCI-H460,724 µM (inactive)
same,GI50,KM-20L2,> 1250 µM (inactive)
